According to ChEMBL document CHEMBL4311957, “Recent advances in natural antifungal flavonoids and their derivatives” (Bioorg Med Chem Lett, 2019):
≈ marks a conversion by molar mass, not a printed value. Each block holds one molecule with its values, some of them ahead of it.

Assays:
Assay type in all cases: functional
Trichosporon beigelii = experiment: Antifungal activity against Trichosporon beigelii KCTC 7707 after 12 to 18 hrs by ELISA
Candida albicans [1] = experiment: Antifungal activity against Candida albicans ATCC 90028 after 12 to 18 hrs by ELISA
Candida albicans [2] = experiment: Antifungal activity against Candida albicans ATCC10231 at 50 ug/ml relative to control; settings: ATCC 10231
Candida parapsilosis [3] = experiment: Antifungal activity against Candida parapsilosis ATCC 22019 after 12 to 18 hrs by ELISA; settings: Lodderomyces parapsilosis
Trichophyton rubrum [4] = experiment: Antifungal activity against Trichophyton rubrum KCTC 6345 after 12 to 18 hrs by ELISA
Candida albicans [5] = experiment: Antifungal activity against Candida albicans ATCC10231; settings: ATCC 10231
Malassezia furfur = experiment: Antifungal activity against Malassezia furfur KCTC 7744 after 12 to 18 hrs by ELISA
Candida albicans [6] = experiment: Antifungal activity against Candida albicans after 48 hrs by agar disc-diffusion method
Candida parapsilosis [7] = experiment: Synergistic antifungal activity against FLC-resistant Candida parapsilosis ATCC 22019 after 24 to 72 hrs by checkerboard microbroth dilution method; settings: Lodderomyces parapsilosis
Pichia kudriavzevii [8] = experiment: Synergistic antifungal activity against FLC-resistant Candida krusei ATCC2340 after 24 to 72 hrs by checkerboard microbroth dilution method
Cryptococcus neoformans [9] = experiment: Synergistic antifungal activity against FLC-resistant Cryptococcus neoformans 32609 after 24 to 72 hrs in presence of FLC by checkerboard microbroth dilution method
Pichia kudriavzevii [10] = experiment: Synergistic antifungal activity against FLC-resistant Candida krusei ATCC2340 after 24 to 72 hrs in presence of FLC by checkerboard microbroth dilution method
Nakaseomyces glabratus [11] = experiment: Synergistic antifungal activity against FLC-resistant Candida glabrata ATCC1182 after 24 to 72 hrs in presence of FLC by checkerboard microbroth dilution method
Candida albicans [12] = experiment: Synergistic antifungal activity against FLC-resistant Candida albicans after 24 to 72 hrs by checkerboard microbroth dilution method
Candida tropicalis [13] = experiment: Synergistic antifungal activity against FLC-resistant Candida tropicalis 2718 after 24 to 72 hrs in presence of FLC by checkerboard microbroth dilution method
Cryptococcus neoformans [14] = experiment: Synergistic antifungal activity against FLC-resistant Cryptococcus neoformans 32609 after 24 to 72 hrs by checkerboard microbroth dilution method
Candida parapsilosis [15] = experiment: Synergistic antifungal activity against FLC-resistant Candida parapsilosis ATCC 22019 after 24 to 72 hrs in presence of FLC by checkerboard microbroth dilution method; settings: Lodderomyces parapsilosis
Nakaseomyces glabratus [16] = experiment: Synergistic antifungal activity against FLC-resistant Candida glabrata ATCC1182 after 24 to 72 hrs by checkerboard microbroth dilution method
Candida tropicalis [17] = experiment: Synergistic antifungal activity against FLC-resistant Candida tropicalis 2718 after 24 to 72 hrs by checkerboard microbroth dilution method
Candida albicans [18] = experiment: Synergistic antifungal activity against FLC-resistant Candida albicans after 24 to 72 hrs in presence of FLC by checkerboard microbroth dilution method
Nakaseomyces glabratus [19] = experiment: Antifungal activity against Candida glabrata 482 by microdilution method
Candida albicans [20] = experiment: Antifungal activity against Candida albicans ATCC 10231 after 48 hrs by CLSI-based broth microdilution method; settings: ATCC 10231, 48 h
Candida albicans [21] = experiment: Antifungal activity against Candida albicans 498 by microdilution method
Candida albicans [22] = experiment: Antifungal activity against Candida albicans 501 by microdilution method
Candida tropicalis [23] = experiment: Antifungal activity against Candida tropicalis CCC 131-2000 after 48 hrs by CLSI-based broth microdilution method; settings: CCC 131-2000, 48 h
Nakaseomyces glabratus [24] = experiment: Antifungal activity against Candida glabrata 587 by microdilution method
Candida albicans [25] = experiment: Antifungal activity against Candida albicans ATCC 10231 by microdilution method
Candida parapsilosis [26] = experiment: Antifungal activity against Candida parapsilosis 96 by microdilution method; settings: Lodderomyces parapsilosis
Trichophyton rubrum [27] = experiment: Antifungal activity against Trichophyton rubrum ATCC MYA3108 by CLSI-based microdilution method
Candida albicans [28] = experiment: Antifungal activity against Candida albicans 53 by microdilution method
Nakaseomyces glabratus [29] = experiment: Antifungal activity against Candida glabrata 531 by microdilution method
Trichophyton rubrum [30] = experiment: Antifungal activity against Trichophyton rubrum deltaTruMDR2 by CLSI-based microdilution method
Cryptococcus neoformans [31] = experiment: Antifungal activity against Cryptococcus neoformans by microdilution method
Nakaseomyces glabratus [32] = experiment: Antifungal activity against Candida glabrata 510 by microdilution method
Nakaseomyces glabratus [33] = experiment: Antifungal activity against Candida glabrata 507 by microdilution method
Candida tropicalis [34] = experiment: Antifungal activity against Candida tropicalis 166 by microdilution method
Nakaseomyces glabratus [35] = experiment: Antifungal activity against Candida glabrata 493 by microdilution method
Pichia kudriavzevii [36] = experiment: Antifungal activity against Candida krusei 168 by microdilution method
Candida albicans [37] = experiment: Synergistic antifungal activity against Candida albicans by microbroth dilution method

SMILES: O=C(CN1CCCCC1)Nc1ccc(C(=O)/C=C/c2ccc(Cl)cc2)cc1
MIC (Candida albicans [6]): 2 µg/mL (≈ 5.22 µM)

SMILES: CC1(C)C=Cc2c(ccc3c2OC[C@@H](c2ccc(O)cc2O)C3)O1 [GLABRIDIN]
MIC (Candida parapsilosis [7]): 64 µg/mL
MIC (Pichia kudriavzevii [8]): 16 to 64 µg/mL
MIC (Cryptococcus neoformans [9]): 16 to 64 µg/mL
MIC (Pichia kudriavzevii [10]): 1 to 16 µg/mL
MIC (Nakaseomyces glabratus [11]): 1 to 16 µg/mL
MIC (Candida albicans [12]): 32 µg/mL
MIC (Candida tropicalis [13]): 1 to 16 µg/mL
MIC (Cryptococcus neoformans [14]): 16 µg/mL
MIC (Candida parapsilosis [15]): 1 to 16 µg/mL
MIC (Nakaseomyces glabratus [16]): 64 µg/mL
MIC (Candida tropicalis [17]): 64 µg/mL
MIC (Candida albicans [18]): 64 µg/mL

SMILES: C[C@@H]1O[C@@H](Oc2cc(O)c3c(=O)c(O)c(-c4ccc(O)c(O)c4)oc3c2)[C@H](O)[C@H](O)[C@H]1O
MIC (Candida albicans [37]): > 64 µg/mL

Further lines, with some results ahead:

MIC (Trichosporon beigelii): 5 µg/mL (≈ 18.5 µM)
MIC (Candida albicans [1]): 5 µg/mL (≈ 18.5 µM)
MIC (Candida parapsilosis [3]): 5 µg/mL (≈ 18.5 µM)
MIC (Trichophyton rubrum [4]): 5 µg/mL (≈ 18.5 µM)
MIC (Candida albicans [5]): 125 µg/mL (≈ 463 µM)
MIC (Malassezia furfur): 5 µg/mL (≈ 18.5 µM)
SMILES: O=c1cc(-c2ccc(O)cc2)oc2cc(O)cc(O)c12 [APIGENIN]
inhibition at 50 µg/mL (Candida albicans [2]): 99.8%

MIC (Nakaseomyces glabratus [19]): 15.6 to 62.5 µg/mL (≈ 57.7 to 231 µM)
MIC (Candida albicans [20]): 31.2 µg/mL (≈ 115 µM)
MIC (Candida albicans [21]): > 83 µg/mL
MIC (Candida albicans [22]): > 83 µg/mL
MIC (Candida tropicalis [23]): 31.2 µg/mL (≈ 115 µM)
MIC (Nakaseomyces glabratus [24]): 15.6 to 62.5 µg/mL (≈ 57.7 to 231 µM)
MIC (Candida albicans [25]): > 83 µg/mL
MIC (Candida parapsilosis [26]): > 83 µg/mL
MIC (Trichophyton rubrum [27]): > 1000 µg/mL
MIC (Candida albicans [28]): > 83 µg/mL
MIC (Nakaseomyces glabratus [29]): 15.6 to 62.5 µg/mL (≈ 57.7 to 231 µM)
MIC (Trichophyton rubrum [30]): > 1000 µg/mL
MIC (Cryptococcus neoformans [31]): 31.2 µg/mL (≈ 115 µM)
MIC (Nakaseomyces glabratus [32]): 15.6 to 62.5 µg/mL (≈ 57.7 to 231 µM)
MIC (Nakaseomyces glabratus [33]): 15.6 to 62.5 µg/mL (≈ 57.7 to 231 µM)
MIC (Candida tropicalis [34]): > 83 µg/mL
MIC (Nakaseomyces glabratus [35]): 15.6 to 62.5 µg/mL (≈ 57.7 to 231 µM)
MIC (Pichia kudriavzevii [36]): > 83 µg/mL
SMILES: O=c1c(O)c(-c2ccccc2)oc2cc(O)cc(O)c12 [GALANGIN]
